Results reported in US7166597B2, “Fused pyrazole derivatives being protein kinase inhibitors” (Glaxo Group Limited, priority 2000, dated 2007).
Where two headings read alike, the source gives them in different places.

Tests used:
p38 kinase = target: T1, p38 kinase (Homo sapiens, UniProt Q16539); experiment: p38 Kinase Assay; assay type: biochemical
T1 construct: GST (N); made in house; host or cells: E. coli
Procedure: The peptide substrate used in the p38 assay was biotin-IPTSPITTTYFFFRRR-amide. The p38 and MEK6 proteins were purified to homogeneity from E. coli expression systems. The fusion proteins were tagged at the N-terminus with Glutathione-S-Transferase (GST). The maximum activation was achieved by incubating 20 uL of a reaction mixture of 30 nM MEK6 protein and 120 nM p38 protein in the presence of 1.5 uM peptide and 10 mM Mg (CH3CO2)2 in 100 mM HEPES7 pH 7.5, added to 15 uL of a mixture of 1.5 uM ATP with 0.08 uCi [g-^33P]ATP, with or without 15 uL of inhibitor in 6% DMSO. The controls were reactions in the presence (negative controls) or absence (positive controls) of 50 mM EDTA. Reactions were allowed to proceed for 60 min at room temperature and quenched with addition of 50 uL of 250 mM EDTA and mixed with 150 uL of Streptavidin SPA beads (Amersham) to 0.5 mg/reaction. The Dynatech Microfluor white U-bottom plates were sealed and the beads were allowed to settle overnight. The plates were counted in a Packard TopCount for 60 seconds. IC50 values were obtained by fitting raw data to % I=100*(1−(I−C2)/(C1−C2)), where I was […], C1 was positive control, and C2 was negative control.

[1] = target: T2, JNK3 kinase (Jnk-3alpha-2) (Homo sapiens, UniProt P53779); experiment: JNK3 Kinase Assay; assay type: biochemical
T2 construct: Jnk-3alpha-2 (as a truncated construct, residues 39 to 224) was expressed in E. coli as a GST fusion protein; Following purification the GST portion was removed by thrombin cleavage; fused on or other part: An N-terminal GST tag was used for expression and removed by thrombin cleavage before the assay
T2 sequence (P53779 39-402 limits assumed): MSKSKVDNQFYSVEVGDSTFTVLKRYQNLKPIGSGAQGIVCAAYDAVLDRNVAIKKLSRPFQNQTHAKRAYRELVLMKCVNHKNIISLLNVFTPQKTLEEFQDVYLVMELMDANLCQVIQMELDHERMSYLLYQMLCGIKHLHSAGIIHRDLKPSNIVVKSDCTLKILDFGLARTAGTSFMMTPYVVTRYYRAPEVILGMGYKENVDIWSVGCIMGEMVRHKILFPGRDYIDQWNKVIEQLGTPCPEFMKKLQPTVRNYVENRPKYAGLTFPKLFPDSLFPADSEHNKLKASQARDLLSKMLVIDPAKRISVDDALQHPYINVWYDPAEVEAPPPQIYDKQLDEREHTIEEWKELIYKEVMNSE
Procedure: JNK3 Kinase Assay Jnk-3alpha-2 (as a truncated construct, residues 39 to 224) was expressed in E. coli as a GST fusion protein. Following purification the GST portion was removed by thrombin cleavage. The enzyme was stored at −80° C. Substrate c-Jun was expressed as a GST fusion protein including a signal peptide (biotinylation site) in E. coli. Following purification the substrate was biotinylated on a specific lysine in the signal peptide using biotin ligase. Prior to assay Jnk-3 was pre-activated by incubation with MgATP. The enzyme (10 nM) was screened in 40 mM HEPES (pH 7.4), 150 mM NaCl, 20 mM glycerophosphate, 1 mM DTT, 0.2 mM vanadate, 200 nM biotin-c-Jun, 5 mM MgCl2 and 10 uM ATP. Inhibitors were added over a conc range of from 0 to 10 uM in DMSO (fc 3%). The reaction was stopped by the addition of 25 mM EDTA. Phospho-c-Jun was detected using homogeneous time resolved fluorescence (HTRF) with a Eu-labelled antiphosphoserine (Serine 73) and streptavidin APC.

[2] = test system: TNF release from human peripheral blood mononuclear cells (PBMNC); experiment: Cell Based Assay for Cytokines Production in PBMNC (TNF release after LPS); conditions: PBMC, read-out: TNF/PBMNC (inhibition of TNF release from human PBMNC following stimulation with LPS, IC50)
Procedure: Cell Based Assay for Cytokines Production in PBMNC
Human peripheral blood mononuclear cells were isolated from heparinized blood by LSM (Organon Teknika) from volunteer donors. Purified human peripheral blood mononuclear cells were then suspended at a concentration of 2×10^6 cells/ml in RPMI 1640 medium supplemented with 10% heat-inactivated FBS and 1% antibiotics. Aliquots of 100 μl (2×10^5 cells) were added to 96-well microliter plates. Test compounds at […] dose ranges (final-DMSO concentration in culture medium was 0.1%) were then added to the cells for 10–15 minutes before the addition of lipopolysaccharide (1 ng/ml). After incubation at 37° C. in a 5% CO2 incubator for 18–20 h, cell free supernatants were collected by centrifugation at 800 g. The supernatant was then assayed for the amount of TNFα and IL-1β by using Quantikine immunoassay kits developed by R&D Systems (Minneapolis, Minn.).

[3] = Table 9, p38 assays using Assay II, read-out: p38 IC50
[4] = Table 8, compounds wherein Z is N, read-out: p38 kinase (inhibition of p38 kinase, IC50)

T1 sequence (Q16539 whole entry): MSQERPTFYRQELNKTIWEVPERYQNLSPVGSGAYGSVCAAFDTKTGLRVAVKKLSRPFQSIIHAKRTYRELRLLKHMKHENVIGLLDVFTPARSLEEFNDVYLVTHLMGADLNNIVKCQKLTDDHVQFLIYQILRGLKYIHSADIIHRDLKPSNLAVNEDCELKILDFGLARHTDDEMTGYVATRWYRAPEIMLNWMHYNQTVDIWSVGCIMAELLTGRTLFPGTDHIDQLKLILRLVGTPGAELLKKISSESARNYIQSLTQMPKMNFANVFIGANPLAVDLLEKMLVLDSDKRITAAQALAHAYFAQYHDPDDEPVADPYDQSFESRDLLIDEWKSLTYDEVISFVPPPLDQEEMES

| SMILES | IC50 (p38 kinase; [3]) | IC50 ([1]; Table 9, read-out: JNK3 IC50) | other results |
| --- | --- | --- | --- |
| Fc1ccc(-c2nn3cc(C(F)(F)F)ccc3c2-c2ccncc2)cc1 [Example 23, 2-(4-Fluorophenyl)-3-(4-pyridinyl)-6-(trifluoromethyl)pyrazolo[1,5-a]pyridine] |  |  | IC50 (p38 kinase; Table 7, compounds wherein Z is CH, read-out: P38 kinase (inhibition of p38 kinase, IC50)): < 500 nM; IC50 ([2]; Table 7, LPS stimulation): < 500 nM |
| CCCN(CCC)CCNc1nccc(-c2c(-c3cccc(Cl)c3)nn3cc(C(F)(F)F)ccc23)n1 [Example 99, N-{4-[2-(3-chlorophenyl)-6-(trifluoromethyl)pyrazolo[1,5-a]pyridin-3-yl]pyrimidin-2-yl}-N-[2-(dipropylamino)ethyl]amine] | 100 to 1000 nM | 1000 to 10000 nM |  |
| Fc1ccc(-c2nn3ccccc3c2-c2ccnc(NCCc3cnc[nH]3)n2)cc1 [Example 80, 4-[2-(4-Fluorophenyl)pyrazolo[1,5-a]pyridin-3-yl]-N-[2-(1H-imidazol-5-yl)ethyl]-2-pyrimidinamine] |  |  | IC50 (p38 kinase; [4]): < 500 nM; IC50 ([2]; Table 8, LPS stimulation): < 500 nM |
| Fc1ccc(-c2nn3ccccc3c2-c2ccnc(NC3CC3)n2)cc1 [Example 61, N-Cyclopropyl-4-[2-(4-fluorophenyl)pyrazolo[1,5-a]pyridin-3-yl]-2-pyrimidinamine] |  |  | IC50 (p38 kinase; [4]): < 500 nM; IC50 ([1]; Table 8, read-out: JNK3 kinase (inhibition of JNK3 kinase, IC50)): < 500 nM |
| CN(C)CCCNc1nccc(-c2c(-c3ccc(F)cc3)nn3cc(C(F)(F)F)ccc23)n1 [Example 87, N-[3-(dimethylamino)propyl]-N-[4-{2-(4-fluorophenyl)-6-(trifluoromethyl)pyrazolo[1,5-a]pyridin-3-yl}pyrimidin-2-yl]amine] | 100 to 1000 nM | 1000 to 10000 nM |  |
| CC(C)N(CCNc1nccc(-c2c(-c3ccc(F)c(Cl)c3)nn3cc(C(F)(F)F)ccc23)n1)C(C)C [Example 100, N-{4-[2-(3-chloro-4-fluorophenyl)-6-(trifluoromethyl)pyrazolo-[1,5-a]pyridin-3-yl]pyrimidin-2-yl}-N-[2-(diisopropylamino)ethyl]amine] | 100 to 1000 nM | 1000 to 10000 nM |  |
| FC(F)(F)c1ccc2c(-c3ccnc(NCCN4CCCC4)n3)c(-c3cccc(Cl)c3)nn2c1 [Example 105, N-{4-[2-(3-chlorophenyl)-6-(trifluoromethyl)pyrazolo[1,5-a]pyridin-3-yl]pyrimidin-2-yl}-N-(2-pyrrolidin-1-ylethyl)amine] | 100 to 1000 nM | 1000 to 10000 nM |  |
| CCN(CC)CCCCNc1nccc(-c2c(-c3cccc(Cl)c3)nn3cc(C(F)(F)F)ccc23)n1 [Example 94, N-{4-[2-(3-chlorophenyl)-6-(trifluoromethyl)pyrazolo[1,5-a]pyridin-3-yl]pyrimidin-2-yl}-N-[4-(diethylamino)butyl]amine] | 10 to 100 nM | 100 to 1000 nM |  |
| Fc1ccc(-c2nn3cc(C(F)(F)F)ccc3c2-c2ccnc(NCCN3CCCC3)n2)cc1Cl [Example 104, N-{4-[2-(3-chloro-4-fluorophenyl)-6-(trifluoromethyl)pyrazolo-[1,5-a]pyridin-3-yl]pyrimidin-2-yl}-N-(2-pyrrolidin-1-ylethyl)amine] | 100 to 1000 nM | 1000 to 10000 nM |  |

Continued, in another order:

| IC50 (p38 kinase; [3]) | IC50 ([1]; Table 9, read-out: JNK3 IC50) | SMILES | other results |
| --- | --- | --- | --- |
| 1000 to 10000 nM | 1000 to 10000 nM | CCCN1CCN(CCNc2nccc(-c3c(-c4ccc(C(F)(F)F)cc4)nn4cc(C(F)(F)F)ccc34)n2)CC1 [Example 127, N-[2-(4-propylpiperazin-1-yl)ethyl]-N-(4-{6-(trifluoromethyl)-2-[4-(trifluoromethyl)phenyl]pyrazolo[1,5-a]pyridin-3-yl}pyrimidin-2-yl)amine] |  |
| 10 to 100 nM | 100 to 1000 nM | CCCN1CCN(CCNc2nccc(-c3c(-c4cccc(Cl)c4)nn4cc(C(F)(F)F)ccc34)n2)CC1 [Example 129, N-{4-[2-(3-chlorophenyl)-6-(trifluoromethyl)pyrazolo[1,5-a]pyridin-3-yl]pyrimidin-2-yl}-N-[2-(4-propylpiperazin-1-yl)ethyl]amine] |  |
| 10 to 100 nM | 100 to 1000 nM | CN1CCN(CCCNc2nccc(-c3c(-c4ccc(F)cc4)nn4cc(C(F)(F)F)ccc34)n2)CC1 [Example 124, N-{4-[2-(4-fluorophenyl)-6-(trifluoromethyl)pyrazolo[1,5-a]pyridin-3-yl]pyrimidin-2-yl}-N-[3-(4-methylpiperazin-1-yl)propyl]amine] |  |
| 100 to 1000 nM | 100 to 1000 nM | Fc1ccc(-c2nn3cc(C(F)(F)F)ccc3c2-c2ccnc(NCCCN3CCOCC3)n2)cc1Cl [Example 122, N-{4-[2-(3-chloro-4-fluorophenyl)-6-(trifluoromethyl)pyrazolo[1,5-a]pyridin-3-yl]pyrimidin-2-yl}-N-(3-morpholin-4-ylpropyl)amine] |  |
| 10 to 100 nM | 100 to 1000 nM | Fc1ccc(-c2nn3cc(C(F)(F)F)ccc3c2-c2ccnc(NCCN3CCOCC3)n2)cc1Cl [Example 120, N-{4-[2-(3-chloro-4-fluorophenyl)-6-(trifluoromethyl)pyrazolo[1,5-a]pyridin-3-yl]pyrimidin-2-yl}-N-(2-morpholin-4-ylethyl)amine] |  |
| 100 to 1000 nM | 1000 to 10000 nM | FC(F)(F)c1ccc2c(-c3ccnc(NCCN4CCCCC4)n3)c(-c3cccc(Cl)c3)nn2c1 [Example 110, N-{4-[2-(3-chlorophenyl)-6-(trifluoromethyl)pyrazolo[1,5-a]pyridin-3-yl]pyrimidin-2-yl}-N-(2-piperidin-1-ylethyl)amine] |  |
| 10 to 100 nM | 100 to 1000 nM | CN1CCN(CCCNc2nccc(-c3c(-c4ccc(F)c(Cl)c4)nn4cc(C(F)(F)F)ccc34)n2)CC1 [Example 125, N-{4-[2-(3-chloro-4-fluorophenyl)-6-(trifluoromethyl)pyrazolo-[1,5-a]pyridin-3-yl]pyrimidin-2-yl}-N-[3-(4-methylpiperazin-1-yl)propyl]amine] |  |
| 100 to 1000 nM | 100 to 1000 nM | Fc1ccc(-c2nn3cc(C(F)(F)F)ccc3c2-c2ccnc(NCCCN3CCCCC3)n2)cc1Cl [Example 113, N-{4-[2-(3-chloro-4-fluorophenyl)-6-(trifluoromethyl)pyrazolo[1,5-a]pyridin-3-yl]pyrimidin-2-yl}-N-(3-piperidin-1-ylpropyl)amine] |  |
| 1000 to 10000 nM | 1000 to 10000 nM | FC(F)(F)c1ccc(-c2nn3cc(C(F)(F)F)ccc3c2-c2ccnc(NCCCN3CCCCC3)n2)cc1 [Example 112, N-(3-piperidin-1-ylpropyl)-N-(4-{6-(trifluoromethyl)-2-[4-(trifluoromethyl)phenyl]pyrazolo[1,5-a]pyridin-3-yl}pyrimidin-2-yl)amine] |  |
| 100 to 1000 nM | 1000 to 10000 nM | Fc1ccc(-c2nn3cc(C(F)(F)F)ccc3c2-c2ccnc(NCCN3CCCCC3)n2)cc1Cl [Example 109, N-{4-[2-(3-chloro-4-fluorophenyl)-6-(trifluoromethyl)pyrazolo[1,5-a]pyridin-3-yl]pyrimidin-2-yl}-N-(2-piperidin-1-ylethyl)amine] |  |
